Experiment [1] concerns mdx mice. The experiment is described as follows: piston ventilator (FlexiVent) forced oscillation measurement of pulmonary resistance, compliance and elastance. Type of experiment: in vivo. The note with it: 50 mg/kg/day oral. Here is the method:
Male mice C57BL/10ScSnJ (healthy mice denoted as “C57Black10” in the figures) and C57BL/10ScSn-Dmdmdx/J (murine model of Duchenne muscular dystrophy, denoted “mdx” in the figures) aged 12 weeks, have been used. The mice have been divided into three groups of 12 mice each: an untreated group of healthy control mice C57Black10, a group of untreated mdx mice (mdx) and a group of mice chronically treated with a dose of 50 mg/kg/day, orally in the drinking water. The respiratory function of all the mice has been evaluated by whole-body plethysmography before the start of the study, (D0) then at 30 days (D30) and 60 days (D60) after the start of the treatment. After two months of treatment, the respiratory function has been invasively evaluated, just before sacrifice of the animal, by piston ventilated controlled by a central control unit (commonly called “computer”), said ventilator using the forced oscillation technique, such as the device known by the name FlexiVent™, in order to determine more directly the mechanical parameters of the respiratory system. In order to determine more directly the mechanical parameters of the respiratory system and the impact of a chronic treatment over a period of two months by BIO101 (D60) on these parameters, the dynamic pulmonary resistance was measured using a piston ventilator system as previously described, in response to increasing doses of metacholine. The mice were anaesthetized and connected by an endotracheal cannula to the piston ventilator system. After the start of mechanical ventilation, each mouse received an intraperitoneal injection of 0.1 mL of a 10 mg/mL rocuronium bromide solution. The animal was ventilated at a respiratory rate of 150 respirations/minute and with a tidal volume of 10 mL/kg against a final positive expiratory pressure of 3 cm H2O. The respiratory mechanisms were evaluated using a forced oscillation maneuver with a duration of 1.2 seconds (2.5 Hz) and a 3-second wideband forced oscillation man oeuvre containing 13 primordial frequencies between 1 and 20.5 Hz. The resistance of the respiratory system (R) was calculated using a microcomputer type central processing unit connected to the piston ventilator system and comprising, in particular, software for performing said calculation. The two maneuvers were carried out alternately every 15 seconds after each nebulization with a metacholine aerosol, in order to measure the change in the response time of the bronchoconstriction induced by metacholine. The pulmonary resistance, compliance and elastance could thus be determined.

The subject of experiment [2] is mdx mice. The experiment is described as follows: whole-body plethysmography of respiratory function in response to metacholine. Type of experiment: in vivo. Here is the method:
Male mice C57BL/10ScSnJ (healthy mice denoted as “C57Black10” in the figures) and C57BL/10ScSn-Dmdmdx/J (murine model of Duchenne muscular dystrophy, denoted “mdx” in the figures) aged 12 weeks, have been used. The mice have been divided into three groups of 12 mice each: an untreated group of healthy control mice C57Black10, a group of untreated mdx mice (mdx) and a group of mice chronically treated with a dose of 50 mg/kg/day, orally in the drinking water. The respiratory function of all the mice has been evaluated by whole-body plethysmography before the start of the study, (D0) then at 30 days (D30) and 60 days (D60) after the start of the treatment. After two months of treatment, the respiratory function has been invasively evaluated, just before sacrifice of the animal, by piston ventilated controlled by a central control unit (commonly called “computer”), said ventilator using the forced oscillation technique, such as the device known by the name FlexiVent™, in order to determine more directly the mechanical parameters of the respiratory system. In order to precisely monitor the change in respiratory function over the course of the treatment, whole-body plethysmography analyses (Emka Technologies, Paris, France) have been performed on the healthy control mice C57Black10, on the untreated mdx mice and on the mdx mice having been treated with BIO101. The advantages of this technique reside in the fact that it allows monitoring to be performed on an awake animal, freely moving in a hermetic enclosure, and that this is performed in a non-invasive manner. Consequently, the stress due to handling of the animals is reduced as it is possible to repeat the measurements over prolonged periods. Barometric plethysmography is therefore frequently used for measuring bronchial reactivity in small animals (Chong et al., 1998; Djuric et al., 1998; Hoffman et al., 1999). The pressure variations measured with respect to a reference chamber make it possible to define various respiratory parameters such as the peaks and times of inspiratory and expiratory pressure as well as a dimensionless quantity called Penh (enhanced Pause) which allows the bronchoconstriction to be evaluated. More specifically, the Penh, calculated from the pressure signal (Pb) in the chamber, is an important index to obtain, because the variations in Penh change in parallel with those of the respiratory resistance and it therefore represents a predictive parameter for changes in the resistive properties of the respiratory system (Hamelmann et al., 1997; Bergren, 2001; Onclinx et al., 2003). The following values have been calculated from the filtered Pb: the maximum variation in Pb during expiration (PEP: Peak Expiratory Pressure), the maximum change in Pb during inspiration (PIP: Peak Inspiratory Pressure) and the time interval (TR). The Penh value has then been calculated as follows: […] [Math. 1] where Pause=(TE−TR)/TE [Math. 2] • TE being the expiration time (Adler et al., 2004). Moreover, the peak inspiratory flow (PIF) and the peak expiratory flow (PEF), the relaxation time (RT) and the respiratory rate (BF) have also been measured and shown. The Penh value has been measured before the start of the treatment (D0), 30 days after the start of the treatment (D30) and 60 days after the treatment (D60). First, the entire cohort of mdx mice (n=24) were compared with healthy mice C57Black10 (n=12), before receiving the treatment. Awake mice were exposed to increasing doses of metacholine aerosols generated by a nebulizer containing 0 to 40 mg/mL of metacholine in PBS.

For `CC(C)(O)CC[C@@H](O)[C@](C)(O)[C@H]1CC[C@@]2(O)C3=CC(=O)[C@@H]4C[C@@H](O)[C@@H](O)C[C@]4(C)[C@H]3CC[C@]12C` [BIO101, 20-hydroxyecdysone], the “resistance of the airways (pulmonary resistance)” value in the experiment on mdx mice [1] (60 days, metacholine 0 to 20 mg/mL, vs untreated mdx mice, p<0.0001) is “significantly lower resistance of the airways”. This compound showed a pulmonary compliance with mdx mice [1] (D60, metacholine 20 mg/mL, untreated mdx 0.017, healthy 0.031 (FIG. 8B)) of 0.029 mL/cmH2O. Moreover, the pulmonary elastance in the experiment with mdx mice [1] (D60, metacholine 20 mg/mL, untreated mdx 34.8, healthy 62.8 as printed (FIG. 8C)) amounted to 69.1 cmH2O/mL. In the experiment with mdx mice [1] (two months, p<0.0001 (FIG. 7B)), the “pulmonary compliance, change at increasing metacholine doses” value is recorded as “significantly improved”. Moreover, in the experiment with mdx mice [1] (two months, p<0.0001 (FIG. 7C)), the “pulmonary elastance, change at increasing metacholine doses” value was “significantly improved”. Also, the relaxation time entry in the experiment on mdx mice [2] (50 mg/kg/day oral, 30 days, compared with untreated mdx mice, p<0.05 (FIG. 3D)) is on record as “clear improvement in relaxation time”; in the experiment on mdx mice [2] (50 mg/kg/day oral, 60 days (FIG. 4D)), “trend towards improved relaxation time”. For the same compound, in the experiment with mdx mice [2] (50 mg/kg/day oral, 30 days, in comparison to D0), the “peak inspiratory flow (cited to FIG. 3B)” value is “remain unchanged”. For the same compound, the respiratory rate entry is on record as “remain unchanged” with mdx mice [2] (50 mg/kg/day oral, 30 days, in comparison to D0 (FIG. 3E)) and “remain unchanged” with mdx mice [2] (50 mg/kg/day oral, 60 days (FIG. 4E)). For the same compound, in the experiment on mdx mice [2] (50 mg/kg/day oral, 30 days, in particular equilibrium state or low metacholine dose, p<0.05), the “peak inspiratory flow (cited to FIG. 3C)” value is on record as “increase in peak inspiratory flow”. In the experiment with mdx mice [2] (50 mg/kg/day oral, 60 days), the peak expiratory flow entry is given as “remain unchanged”. Also, the peak inspiratory flow entry in the experiment on mdx mice [2] (50 mg/kg/day oral, 60 days, p<0.05 (FIG. 4B)) is “significant improvement”. Besides, the “mean Penh value” in the experiment with mdx mice [2] (50 mg/kg/day oral, D60, metacholine dose of 40 mg/mL, untreated mdx 4, healthy 1.04 (FIG. 6B)) turned out to be 1.87. For the same compound, the “Penh in response to metacholine” value with mdx mice [2] (50 mg/kg/day oral, after 60 days of treatment, compared to untreated mdx mice, p<0.0001 (FIG. 4A)) was “significant reduction in the Penh”; in the experiment with mdx mice [2] (50 mg/kg/day orally in drinking water, after 30 days of treatment, compared to mdx mice at D0, p<0.001 (FIG. 3A)), “significant reduction in Penh”.
